We go through 5 compounds from the NIST ThermoML archive (doi:10.1016/j.jct.2017.10.017).

The conditions of the data set: for Glass transition temperature: DSC; for Normal melting temperature: Crystal, DTA.

± gives the expanded uncertainty stated by the source.

As to `CCCC[N+](C)(CCO)CCO.[Br-]` [N,N-bis(2-hydroxyethyl)-N-methylbutan-1-aminium bromide], the Glass transition temperature was -49 ± 6 °C.

Regarding `CCCCCCCC[N+](C)(CCO)CCO.[Br-]` [N,N-bis(2-hydroxyethyl)-N-methyloctan-1-aminium bromide], the Normal melting temperature was determined as 27 ± 6 °C.

Regarding `CCCC[N+](CCO)(CCO)CCCC.[Br-]` [N-butyl-N,N-bis(2-hydroxyethyl)butan-1-aminium bromide], the Glass transition temperature is -50 ± 6 °C.

For the compound `CCCCCCCCCC[N+](C)(CCO)CCO.[Br-]` [N,N-bis(2-hydroxyethyl)-N-methyldecan-1-aminium bromide], the Normal melting temperature is 47 ± 6 °C.

As for `CCCCCC[N+](C)(CCO)CCO.[Br-]` [N,N-bis(2-hydroxyethyl)-N-methylhexan-1-aminium bromide], the Glass transition temperature is -47 ± 6 °C.
